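Protocol summary: plate cells (96-well), add compound at 5 concentrations, incubate 48 h, interpolate endpoints linearly. GI50 is the concentration that inhibits growth by half.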 The source made the active and inactive calls. Rule as the data show it: active = GI50 up to about 1.1 µM and inactive = higher.
How the values were obtained:
Assay in all cases: growth of human tumour cells (NCI), 48 h
[1] = system: HCT-116
[2] = system: HT-29
[3] = system: OVCAR-4
[4] = system: OVCAR-8
[5] = system: SF-539
[6] = system: COLO 205
[7] = system: MCF7
[8] = system: OVCAR-5
[9] = system: SN12C
[10] = system: SW-620
[11] = system: MDA-MB-435
[12] = system: PC-3
[13] = system: ACHN
[14] = system: HOP-62
[15] = system: SK-MEL-5
[16] = system: UO-31
[17] = system: NCI-H23
[18] = system: RXF 393
[19] = system: HCT-15
[20] = system: M14
[21] = system: BT-549
[22] = system: HL-60
[23] = system: Hs-578T
[24] = system: SNB-75
[25] = system: SR
[26] = system: NCI-H522
[27] = system: DU-145
[28] = system: K562
[29] = system: NCI/ADR-RES
[30] = system: U-251
[31] = system: A549
[32] = system: SK-OV-3
[33] = system: MDA-N
[34] = system: NCI-H226
[35] = system: 786-0
[36] = system: IGROV-1
[37] = system: SF-268
[38] = system: Malme-3M
[39] = system: A498
[40] = system: SK-MEL-2
[41] = system: SNB-19
[42] = system: OVCAR-3
[43] = system: KM12
[44] = system: NCI-H460
[45] = system: TK-10
[46] = system: MOLT-4
[47] = system: RPMI-8226
[48] = system: LOX IMVI
[49] = system: T47D
[50] = system: EKVX
[51] = system: CAKI-1
[52] = system: SF-295
[53] = system: UACC-62
[54] = system: HCC 2998
[55] = system: UACC-257
[56] = system: CCRF-CEM
[57] = system: SK-MEL-28
[58] = system: MDA-MB-231
[59] = system: HOP-92

For `O=C(O)CSc1ccccc1C(=O)O`, the GI50 [1] was > 100 µM (inactive), the GI50 [2] was > 100 µM (inactive) and the GI50 [3] was > 100 µM (inactive). For the same molecule, the GI50 [4] was > 100 µM (inactive), the GI50 [5] was > 100 µM (inactive) and the GI50 [6] was > 100 µM (inactive). For the same molecule, the GI50 [7] was > 100 µM (inactive), the GI50 [8] was > 100 µM (inactive) and the GI50 [9] was > 100 µM (inactive). For the same molecule, the GI50 [10] was > 100 µM (inactive), the GI50 [11] was > 100 µM (inactive) and the GI50 [12] was > 100 µM (inactive). For the same molecule, the GI50 [13] was > 100 µM (inactive), the GI50 [14] was > 100 µM (inactive) and the GI50 [15] was > 100 µM (inactive). The GI50 [16] was > 100 µM (inactive), the GI50 [17] was > 100 µM (inactive) and the GI50 [18] was > 100 µM (inactive). The GI50 [19] was greater than 100 µM, the GI50 [20] was > 100 µM (inactive) and the GI50 [21] was > 100 µM (inactive). The GI50 [22] was 6.03 µM (inactive), the GI50 [23] was > 100 µM (inactive) and the GI50 [24] was > 100 µM (inactive). The GI50 [25] was > 100 µM (inactive), the GI50 [26] was > 100 µM (inactive) and the GI50 [27] was > 100 µM (inactive). For the same molecule, the GI50 [28] was > 100 µM (inactive), the GI50 [29] was > 100 µM (inactive) and the GI50 [30] was > 100 µM (inactive). The GI50 [31] was > 100 µM (inactive), the GI50 [32] was > 100 µM (inactive) and the GI50 [33] was > 100 µM (inactive). The GI50 [34] was 99.1 µM (inactive), the GI50 [35] was > 100 µM (inactive) and the GI50 [36] was > 100 µM (inactive). The GI50 [37] was > 100 µM (inactive), the GI50 [38] was > 100 µM (inactive) and the GI50 [39] was > 100 µM (inactive). For the same molecule, the GI50 [40] was > 100 µM (inactive), the GI50 [41] was > 100 µM (inactive) and the GI50 [42] was > 100 µM (inactive). The GI50 [43] was > 100 µM (inactive), the GI50 [44] was 20.7 µM (inactive) and the GI50 [45] was 22.8 µM (inactive). For the same molecule, the GI50 [46] was > 100 µM (inactive), the GI50 [47] was > 100 µM (inactive) and the GI50 [48] was > 100 µM (inactive). The GI50 [49] was > 100 µM (inactive), the GI50 [50] was > 100 µM (inactive) and the GI50 [51] was > 100 µM (inactive). For the same molecule, the GI50 [52] was > 100 µM (inactive), the GI50 [53] was > 100 µM (inactive) and the GI50 [54] was 29.6 µM (inactive). The GI50 [55] was 15 µM (inactive), the GI50 [56] was > 100 µM (inactive) and the GI50 [57] was > 100 µM (inactive). For the same molecule, the GI50 [58] was > 100 µM (inactive) and the GI50 [59] was > 100 µM (inactive).

`[N-]=[N+]=NC1C(O)C(CO)OC1n1cnc2c(N)ncnc21` (stereo not drawn) was tested, and the GI50 [1] was 42.3 µM (inactive), the GI50 [2] was 31 µM (inactive) and the GI50 [3] was > 100 µM (inactive). The GI50 [4] was 37.9 µM (inactive), the GI50 [5] was 27.9 µM (inactive) and the GI50 [6] was > 100 µM (inactive). For the same molecule, the GI50 [7] was 5.21 µM (inactive), the GI50 [8] was > 100 µM (inactive) and the GI50 [9] was 25.9 µM (inactive). The GI50 [10] was 60.5 µM (inactive), the GI50 [11] was 82.6 µM (inactive) and the GI50 [12] was 74.3 µM (inactive). For the same molecule, the GI50 [13] was 5.28 µM (inactive), the GI50 [14] was 84.9 µM (inactive) and the GI50 [15] was > 100 µM (inactive). For the same molecule, the GI50 [16] was 36.6 µM (inactive), the GI50 [17] was 30.5 µM (inactive) and the GI50 [18] was 66.2 µM (inactive). The GI50 [19] was greater than 100 µM, the GI50 [20] was 36.6 µM (inactive) and the GI50 [21] was 54.8 µM (inactive). The GI50 [22] was 0.522 µM (active), the GI50 [23] was > 100 µM (inactive) and the GI50 [24] was 36.4 µM (inactive). The GI50 [25] was 1.67 µM (inactive), the GI50 [26] was 65.8 µM (inactive) and the GI50 [27] was 3.04 µM (inactive). For the same molecule, the GI50 [28] was 19.3 µM (inactive), the GI50 [29] was 27.1 µM (inactive) and the GI50 [30] was > 100 µM (inactive). For the same molecule, the GI50 [31] was 47.5 µM (inactive), the GI50 [32] was 87.5 µM (inactive) and the GI50 [33] was 71.3 µM (inactive). For the same molecule, the GI50 [34] was 51.6 µM (inactive), the GI50 [35] was 30.8 µM (inactive) and the GI50 [36] was 92.7 µM (inactive). The GI50 [37] was 51.1 µM (inactive), the GI50 [38] was > 100 µM (inactive) and the GI50 [39] was 66.8 µM (inactive). The GI50 [40] was > 100 µM (inactive), the GI50 [41] was 59.4 µM (inactive) and the GI50 [42] was > 100 µM (inactive). For the same molecule, the GI50 [43] was 74.3 µM (inactive), the GI50 [44] was 6.34 µM (inactive) and the GI50 [45] was > 100 µM (inactive). For the same molecule, the GI50 [46] was 9.51 µM (inactive), the GI50 [47] was 45.8 µM (inactive) and the GI50 [48] was 24.7 µM (inactive). For the same molecule, the GI50 [49] was 8.83 µM (inactive), the GI50 [50] was > 100 µM (inactive) and the GI50 [51] was 40.9 µM (inactive). The GI50 [52] was 44.1 µM (inactive), the GI50 [53] was 99.5 µM (inactive) and the GI50 [54] was 29.7 µM (inactive). The GI50 [55] was > 100 µM (inactive), the GI50 [56] was 10.1 µM (inactive) and the GI50 [57] was > 100 µM (inactive). The GI50 [58] was > 100 µM (inactive) and the GI50 [59] was 45.7 µM (inactive).
